Results taken from patent publication US20230174584A1, “Antibiotic Compounds” (priority 2019, published 2023).
Converted amounts (≈) assume the structure as drawn.

Experiments:
S. aureus ATCC29213 = assay: MIC assay; format: cell-based, Staphylococcus aureus
Method in brief: (§1)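 Read-out: lowest concentration inhibiting growth, reported as the median MIC (μg/mL) over ≥ triplicates. Set-up: CLSI method, TSB with 0.002% polysorbate 80, 10^6 CFU/mL inoculum added in equal volume to 2-fold dilutions, 37 °C for 24 h with 600 rpm agitation.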

[1] = tested on: S. aureus HIP12864, NR-46074; assay: MIC assay; format: cell-based, Staphylococcus aureus
Method in brief: as §1

[2] = tested on: S. aureus 880 (BR-VRSA), NR-49120; assay: MIC assay; format: cell-based, Staphylococcus aureus
Method in brief: as §1

[3] = tested on: S. aureus LIM-2, NR-25881; assay: MIC assay; format: cell-based, Staphylococcus aureus
Method in brief: as §1

[4] = tested on: S. aureus NY-155, NR-46236; assay: MIC assay; format: cell-based, Staphylococcus aureus
Method in brief: as §1

E. faecium E0341 = assay: MIC assay; format: cell-based, Enterococcus faecium
NRS19 = assay: MIC assay, VISA and VRSA panel; format: cell-based, Staphylococcus aureus
Experimental: (§2) The antibacterial activity of the compounds was tested against a panel of bacteria, including Gram-positive bacteria (S. aureus ATCC29213, S. aureus USA300, S. aureus LIM-2, NR-45881, S. aureus HIP13419, NR-46413, E. faecium E155, E. faecium E7314, E. faecium E980, E. faecalis E1246, E. faecalis E7406 and S. pneumonia 153). The antibacterial activity of the compounds was further tested against S. aureus NY-155, NR-46236, S. aureus HIP12864, NR-46074, S. aureus 880 (BR-VRSA), NR-49120, E. faecalis E1246, E. faecalis E7604, as well as some Gram-negative bacteria (Escherichia coli and Klebsiella pneumoniae). Minimum inhibitory concentrations (MICs) in μg/mL were performed according to the CLSI guidelines. From glycerol stocks, bacterial strains were cultured on blood agar plates and incubated at 37° C. for 18 h. A single colony was transferred to tryptic soy broth (TSB) with 0.002% polysorbate 80 (p80). For the Enterococcus, VISA and VRSA strains, the cultures were grown at 37° C. until the optical density of the suspension reached a level equivalent to the 0.5 McFarland standard. The bacterial suspensions were diluted in TSB with 0.002% p80 to reach a bacterial cell density of 10^6 CFU/mL. In case of the other (vancomycin-sensitive) S. aureus strains, the direct colony suspension method was used. For these strains, after transfer of the colonies to TSB with 0.002% p80, they were immediately diluted to 10^6 CFU/mL, instead of incubated prior to this dilution. In the case of S. pneumonia, direct colony suspension was used by immediately suspending multiple colonies from fresh blood agar plates in TSB+0.002% p80 to an OD600 of 0.5 and subsequent dilution to 10^6 CFU mL^−1 in TSB+0.002% p80+5% lysed horse blood. Antibiotic dilutions for this strains were also made in TSB+0.002% p80+5% lysed horse blood. Both agar and microplates containing S. pneumonia were incubated at 37° C. with 5% CO2 for 24 h with constant shaking (600 rpm). […] The cultures were grown to exponential phase (OD600=0.5) at 37° C. […] In polypropylene 96-well microtiter plates, test compounds were added in biological triplicates and serial diluted 2-fold by transfer and mixing from one well to the next to achieve a final volume of 50 μL per well. An equal volume of bacterial suspension (10^6 CFU mL^−1) was added to the wells. The plates were sealed with breathable membranes and incubated at 37° C. for 24 h with constant shaking (600 rpm). In polypropylene microtiter plates, 100 μL of the test compounds was added to the first row in biological triplicates, and 50 μL of media was added to the other wells. The compounds were subjected to serial dilution by transfer and mixing of 50 μL from one well to the next. Subsequently, 50 μL of bacterial suspension (10^6 CFU/mL) was added to the wells. The plates were sealed with breathable membranes and incubated at 37° C. for 24 h with constant shaking (600 rpm). Positive growth control consisted of wells with bacterial suspension and without antibiotic. Negative growth control consisted of solely media without bacterial suspension or antibiotic. The MICs were determined from the median of a minimum of triplicates.

VRS2 = assay: MIC assay, VISA and VRSA panel; format: cell-based, Staphylococcus aureus
Experimental: as §2

NRS51 = assay: MIC assay, VISA and VRSA panel; format: cell-based, Staphylococcus aureus
Experimental: as §2

NRS52 = assay: MIC assay, VISA and VRSA panel; format: cell-based, Staphylococcus aureus
Experimental: as §2

VRS5 = assay: MIC assay, VISA and VRSA panel; format: cell-based, Staphylococcus aureus
Experimental: as §2

E. faecium E2359 = assay: MIC assay; format: cell-based, Enterococcus faecium
E. faecalis E7406 = assay: microbe, parasite or virus in culture; format: cell-based, Enterococcus faecalis
Method in brief: as §1

E. faecalis E7604 = assay: microbe, parasite or virus in culture; format: cell-based, Enterococcus faecalis
Method in brief: as §1

E. faecium E155 = assay: microbe, parasite or virus in culture; format: cell-based, Enterococcus faecium
Method in brief: as §1

E. faecium E7314 = assay: microbe, parasite or virus in culture; format: cell-based, Enterococcus faecium
Method in brief: as §1

E. faecium E7403 = assay: MIC assay; format: cell-based, Enterococcus faecium
Method in brief: as §1

E. faecium E980 = assay: MIC assay; format: cell-based, Enterococcus faecium
Method in brief: as §1

S. aureus USA300 = assay: microbe, parasite or virus in culture; format: cell-based, Staphylococcus aureus
Method in brief: as §1

[5] = tested on: S. aureus HIP13419, NR-46413; assay: microbe, parasite or virus in culture; format: cell-based, Staphylococcus aureus
Method in brief: as §1

CCCCCCN(CCCCCC)C(N)=Nc1ccc(CN[C@@]2(C)C[C@H](O[C@H]3[C@H](Oc4c5cc6cc4Oc4ccc(cc4Cl)[C@@H](O)[C@@H](NC(=O)[C@@H](CC(C)C)NC)C(=O)N[C@@H](CC(N)=O)C(=O)N[C@H]6C(=O)N[C@H]4C(=O)N[C@H](C(=O)N[C@H](C(=O)O)c6cc(O)cc(O)c6-c6cc4ccc6O)[C@H](O)c4ccc(c(Cl)c4)O5)O[C@H](CO)[C@@H](O)[C@@H]3O)O[C@@H](C)[C@H]2O)cc1 [Compound 12]
MIC (S. aureus ATCC29213; S. aureus ATCC29213 MSSA): ≤0.007812 µg/mL | MIC ([1]; S. aureus HIP12864, NR-46074 VISA): 0.063 µg/mL (≈ 0.0357 µM) | MIC ([2]; S. aureus 880, NR-49120 VRSA): 1 µg/mL (≈ 0.567 µM) | MIC ([2]; strain BR-VRSA): 1 µg/mL (≈ 0.567 µM) | MIC ([3]; S. aureus LIM-2, NR-25881 VISA): ≤0.008 µg/mL | MIC ([4]; S. aureus NY-155, NR-46236 MRSA): ≤0.008 µg/mL | MIC (E. faecium E0341; E. faecium E0341, VanA): 2 µg/mL (≈ 1.13 µM) | MIC (NRS19; strain NRS19): 0.25 µg/mL (≈ 0.142 µM) | MIC (VRS2; strain VRS2): <0.016 µg/mL | MIC (NRS51; strain NRS51): 0.125 µg/mL (≈ 0.0708 µM) | MIC (NRS52; strain NRS52): 0.031 µg/mL (≈ 0.0176 µM) | MIC (VRS5; strain VRS5): 1 µg/mL (≈ 0.567 µM) | MIC (E. faecium E2359; E. faecium E2359, VanB): ≤0.008 µg/mL | MIC (E. faecalis E7406; E. faecalis E7406 VRE (VanB)): ≤0.007812 µg/mL | MIC (E. faecalis E7604; E. faecalis E7604 VRE (vanB)): ≤0.008 µg/mL | MIC (E. faecium E155; E. faecium E155, VanA (Table 10)): 1 µg/mL (≈ 0.567 µM) | MIC (E. faecium E155; E. faecium E155 VRE (VanA)): 1 µg/mL (≈ 0.567 µM) | MIC (E. faecium E7314; E. faecium E7314, VanB (Table 10)): ≤0.008 µg/mL | MIC (E. faecium E7314; E. faecium E7314 VRE (VanB)): ≤0.007812 µg/mL | MIC (E. faecium E7403; E. faecium E7403, VanB): ≤0.008 µg/mL | MIC (E. faecium E980; E. faecium E980 VSE): ≤0.007812 µg/mL | MIC (S. aureus USA300; MRSA USA300, TSB + 0.002% p80): 0.063 µg/mL | MIC (S. aureus USA300; S. aureus USA300 MRSA): 0.0625 µg/mL (≈ 0.0354 µM) | MIC ([5]; S. aureus HIP13419, NR-46413 VRSA): 0.25 µg/mL (≈ 0.142 µM)

CN[C@H](CC(C)C)C(=O)N[C@H]1C(=O)N[C@@H](CC(N)=O)C(=O)N[C@H]2C(=O)N[C@H]3C(=O)N[C@H](C(=O)N[C@H](C(=O)O)c4cc(O)cc(O)c4-c4cc3ccc4O)[C@H](O)c3ccc(c(Cl)c3)Oc3cc2cc(c3O[C@@H]2O[C@H](CO)[C@@H](O)[C@H](O)[C@H]2O[C@H]2C[C@](C)(N)[C@H](O)[C@H](C)O2)Oc2ccc(cc2Cl)[C@H]1O [Vancomycin, reference compound]
MIC (S. aureus ATCC29213; Staphylococcus aureus, ATCC 29213 / MSSA): 1 µg/mL (≈ 0.69 µM) | MIC ([1]; Staphylococcus aureus, VISA): 8 µg/mL (≈ 5.52 µM) | MIC ([2]; Staphylococcus aureus, VRSA): > 128 µg/mL | MIC ([2]; strain BR-VRSA): >128 µg/mL | MIC ([3]; Staphylococcus aureus, VISA): 8 µg/mL (≈ 5.52 µM) | MIC ([4]; Staphylococcus aureus, MRSA): 2 µg/mL (≈ 1.38 µM) | MIC (E. faecium E0341; Enterococcus faecium, E0341): > 128 µg/mL | MIC (NRS19; Staphylococcus aureus, NRS19): 4 µg/mL (≈ 2.76 µM) | MIC (VRS2; Staphylococcus aureus): 32 µg/mL (≈ 22.1 µM) | MIC (NRS51; Staphylococcus aureus, NRS51): 4 µg/mL (≈ 2.76 µM) | MIC (NRS52; Staphylococcus aureus, NRS52): 4 µg/mL (≈ 2.76 µM) | MIC (VRS5; Staphylococcus aureus): > 128 µg/mL | MIC (E. faecium E2359; Enterococcus faecium, E2359): 128 µg/mL (≈ 88.3 µM) | MIC (E. faecalis E7406; Enterococcus faecalis, VRE): 16 µg/mL (≈ 11 µM) | MIC (E. faecalis E7604; Enterococcus faecalis, VRE): 16 µg/mL (≈ 11 µM) | MIC (E. faecium E155; Enterococcus faecium, E155): > 128 µg/mL | MIC (E. faecium E155; Enterococcus faecium, VRE): > 128 µg/mL | MIC (E. faecium E7314; Enterococcus faecium, E7314): 128 µg/mL (≈ 88.3 µM) | MIC (E. faecium E7314; Enterococcus faecium, VRE): 128 µg/mL (≈ 88.3 µM) | MIC (E. faecium E7403; Enterococcus faecium, E7403): 16 µg/mL (≈ 11 µM) | MIC (E. faecium E980; Enterococcus faecium, E980): 0.5 µg/mL (≈ 0.345 µM) | MIC (S. aureus USA300; Staphylococcus aureus, MRSA / USA300): 1 µg/mL (≈ 0.69 µM) | MIC ([5]; Staphylococcus aureus, VRSA): > 128 µg/mL
